The target in series [1] is T1, lipase activity of LIPA (Homo sapiens, UniProt P38571).
T1 construct: lipase activity of parental SUM-159 (WT) and SUM-159 cells with LIPA KO; endogenous in cells; host or cells: SUM-159 (parental)
The series can be described thus: Lipase activity assay. The series is classed as biochemical. Particulars: SUM-159 cells. An excerpt: FIGS. 39A-N: (FIGS. 39A-E) Predicted binding mode of ERX-41 (colored in green) on the human lysosomal acid lipase (LAL, PDB code: 6V7N, LXXLL (SEQ ID NO: 1) domain colored in orange). (FIG. 39F) PDB structure of LAL protein showing relative positions of the catalytic domain (with H274Y MT) and the LXXLL (SEQ ID NO: 1) domain (L242P MT). (FIG. 39G) Evaluation of the effect of ERX-41 and lalistat (known lipase inhibitor) on lipase activity of parental SUM-159 (WT) and SUM-159 cells with LIPA KO. (FIG. 39H) Evaluation of basal lipase activity in parental SUM-159 (WT), SUM-159 cells with LIPA KO (KO), SUM-159 cells with LIPA KO and with reconstitution of either WT LIPA (KO+WT), H274Y MT-LIPA (KO+H274Y), DLXXLL (SEQ ID NO: 2) MT-LIPA (KO+DLXXLL (SEQ ID NO: 2)) or L242P MT-LIPA (KO+L242P). Protein expression of LAL and control vinculin in these cells are shown below (FIG. 391) Cellular lysates from described SUM-159 cells were incubated with biotinylated ERX-11 or biotinylated ERX-41 and then subject to a streptavidin column. Elutants were then evaluated for LIPA pulldown by western blotting. (FIG. 39J) Dose response curve to increasing concentrations of ERX-41 in described SUM-159 cells. (FIGS. 39K-M) Effect of vehicle or 1 μM ERX-41 on induction of UPR genes at the protein level (FIG. 39K) or RNA level (FIGS. 39L-M). […]

The nature of series [2]: Pharmacokinetic studies of ERX-41. Format: in vivo, mice. The protocol:
FIGS. 35A-P: ERX-41 is potent against TNBC in vivo. (FIG. 35A) Following establishment of subcutaneous MDA-MB-231 xenograft tumors (200 mm^3), 10 mg/kg single dose ERX-41 was administered either by oral or intraperitoneal route. The tumor was harvested 0, 0, 5, 1, 5, 3, 6 and 24 h after drug administration and the drug levels assayed by LC-MS/MS and graphed. (FIGS. 35B-E) Following establishment of MDA-MB-231 xenografts in mammary fat pad in vivo (100 mm^3 size), daily administration of 10 mg/kg ERX-41 or vehicle control (N=8 each group) was initiated. Tumor volumes were measured using digital calipers and graphed (FIG. 35B). Tumor weights (FIG. 35C), body weights (FIG. 35D) and extirpated tumors (FIG. 35E) at end of study are also shown. (FIGS. 35F-H) Following establishment of D2A1 syngeneic xenografts in mammary fat pad in vivo (100 mm^3 size), daily administration of 10 mg/kg ERX-41 or vehicle control (N=8 each group) was initiated. Tumor volumes were measured using digital calipers and graphed (FIG. 35F) along with tumor weights (FIG. 35G) and body weights (FIG. 35H). (FIGS. 35I-P) Effect of ERX-41 on the growth (FIG. 351, FIG. 35K, FIG. 35M, FIG. 35O) and tumor weights (FIG. 35J, FIG. 35L, FIG. 35N, FIG. 35P) of four distinct TNBC PDXs compared to vehicle. *p<0.05. **p<0.01; ***p<0.001.
Additionally, ERX-41 was detectable within 1.5 h in established subcutaneous MDA-MB-231 xenograft tumors after oral or intraperitoneal administration (FIG. 35A). […] ERX-41 decreased tumor growth, as shown by extirpated tumor sizes at the end of study (FIG. 35C and FIG. 35E). […] The inventors validated the activity of ERX-41 in four distinct TNBC PDXs established in the mammary fat pad (FIGS. 35I-P).

The source of these data is patent US12275685B2, “Oligo-benzamide analogs and their use in cancer treatment” (Board of Regents, The University of Texas System, priority 2018, dated 2025).

Where only a bound is given, the exact number is not on record here.

T1 sequence (P38571 77-399): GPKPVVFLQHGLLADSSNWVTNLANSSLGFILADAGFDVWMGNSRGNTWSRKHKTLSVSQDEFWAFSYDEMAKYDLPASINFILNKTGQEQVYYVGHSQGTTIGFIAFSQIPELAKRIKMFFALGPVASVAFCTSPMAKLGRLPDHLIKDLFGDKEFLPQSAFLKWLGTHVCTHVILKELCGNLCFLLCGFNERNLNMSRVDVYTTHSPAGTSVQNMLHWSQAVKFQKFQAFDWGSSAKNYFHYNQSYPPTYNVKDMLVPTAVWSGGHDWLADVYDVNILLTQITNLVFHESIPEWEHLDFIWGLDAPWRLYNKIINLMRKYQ

Take `CC(C)COc1cc(C(=O)Nc2ccc(C(=O)N[C@H]3CC[C@H](C)CC3)cc2OCC(C)C)ccc1NC(=O)c1ccc([N+](=O)[O-])c(OCCO)c1` [TK41]: the “effect on lipase activity of LIPA” value in series [1] is “no inhibition of lipase activity”. The oral bioavailability result in series [2] (mouse, in vivo, po) was “orally bioavailable”. In addition, the “time of peak detectable levels in the plasma” value in series [2] (oral, 10 mg/kg single dose) was 4 h. Besides, the “time until detectable in tumors” value in series [2] (subcutaneous MDA-MB-231 xenograft tumors, oral or intraperitoneal) is listed as ≤ 1.5 h.
